Assay results as given in patent US8598182B2, “Insecticidal pyrimidinyl aryl hyrdrazones” (Dow AgroSciences, LLC., priority 2007, dated 2013).

Legend:
[1] = system: Corn Earworm (Helicoverpa zea); assay: Insecticidal diet-surface test for corn earworm; format: in vivo; conditions: second-instar corn earworm, 50 ug/cm2 on diet surface, 5 days after treatment, dead insects of 8
Experimental: (§1) The compounds identified in Table 1 were prepared using the procedures illustrated in the foregoing examples, and the compounds were tested against beet armyworm and corn earworm as follows:
(§2) Insecticidal Test for Corn Earworm (Helicoverpa zea) and Beet Armyworm (Spodoptera exigua).
(§3) To prepare test solution, the test compound was formulated at 2000 ppm solution as 4 mg/2 mL of 9 acetone:1 tap water. 50 μL of the 2000 ppm (equivalent to 50 ug/cm^2 dose on diet surface area) test solution was pipetted upon the surface of 1 mL of lepidopteran diet (Southland Multi-Species Lepidopteran Diet) contained in each of eight wells per insect species (one well=1 replication). A second-instar corn earworm and beet armyworm was placed upon the treated diet in each well once the solvent had air-dried. Trays containing the treated diet and larvae were covered and then held in a growth chamber at 25° C., 50-55% RH, and 16 hr light:8 hr dark for 5 days. Observation were conducted 5 days after treatment and infestation. The number of dead insects of 8 per species per treatment was then determined and the results are given in Table 1 as percent control at a dose of […].
(§4) Keys to the table: Mass spectral data were obtained using liquid chromatography mass spectroscopy (LC-MS). The masses are detected using electrospray ionization (ESI) and reported as Mol Ion (M+H, M−H); AVG LAPHEG 50 refers to activity against beet army worm (Spodoptera exigua) as defined above; AVG HELIZE 50 refers to activity against corn ear worm (Helicoverpa zea) as described above.

[2] = system: Beet Armyworm (Spodoptera exigua); assay: Insecticidal diet-surface test for beet armyworm; format: in vivo; conditions: second-instar beet armyworm, 50 ug/cm2 on diet surface, 5 days after treatment, dead insects of 8
Experimental: as §1, §2, §3, §4

Row | Structure (SMILES) | HELIZE 50 (ug/cm2), percent control [1] [%] | LAPHEG 50 (ug/cm2), percent control [2] [%]
1 | Fc1ccc(Nc2cc(N3CCOCC3)nc(N/N=C/c3ccc(OC(F)(F)F)cc3)n2)cc1C(F)(F)F [Compound 62] | 100 | 100
2 | FC(F)C(F)(F)Oc1ccc(/C=N/Nc2cc(Nc3cc(Cl)cc(C(F)(F)F)c3)nc(Cl)n2)cc1 [Compound 84] | 100 | 100
3 | Fc1ccc(Nc2nc(N/N=C/c3ccc(OC(F)(F)C(F)F)cc3)nc(Cl)c2Cl)cc1C(F)(F)F [Compound 42] | 38 | 38
4 | Clc1cc(Nc2cccc(Br)c2)nc(N/N=C/c2ccccc2Cl)n1 [Compound 34] | 13 | 25
5 | Fc1cnc(N/N=C/c2cccc(OC(F)(F)F)c2)nc1Nc1ccc(OC(F)(F)F)cc1 [Compound 15] | 75 | 0
6 | FC(F)(F)Oc1ccc(/C=N/Nc2ccnc(Nc3ccc(OC(F)(F)F)cc3)n2)cc1 [Compound 73] | 100 | 100
7 | CN(/N=C/c1ccc(OC(F)(F)F)cc1)c1nc(Nc2ccc(OC(F)(F)F)cc2)cc(C(F)(F)F)n1 [Compound 61] | 88 | 88
8 | Clc1ccc(Nc2cc(Cl)nc(N/N=C/c3cccc(Cl)c3)n2)cc1 [Compound 28] | 50 | 50
9 | Fc1ccc(Nc2cc(Cl)nc(N/N=C/c3cccc(OC(F)(F)C(F)F)c3)n2)cc1C(F)(F)F [Compound 30] | 13 | 100
10 | Fc1cc(Nc2ccc(F)c(C(F)(F)F)c2)nc(NN=Cc2ccc(OC(F)(F)C(F)F)cc2)n1 [Compound 18] | 100 | 100
11 | Fc1ccc(/C=N/Nc2nc(Cl)cc(Nc3ccc(OC(F)(F)C(F)F)cc3)n2)cc1C(F)(F)F [Compound 8] | 100 | 100
12 | COc1ccc(/C=N/Nc2nc(Cl)cc(Nc3ccc(Cl)cc3)n2)cc1 [Compound 29] | 0 | 63
13 | Clc1ccc(/C=N/Nc2nc(Cl)cc(Nc3cccc(Br)c3)n2)cc1 [Compound 36] | 38 | 0
14 | Fc1cnc(N/N=C/c2ccc(OC(F)(F)C(F)F)cc2)nc1Nc1ccc(OC(F)(F)F)cc1 [Compound 14] | 88 | 0
15 | FC(F)(F)Oc1ccc(/C=N/Nc2nc(Cl)cc(Nc3ccc(Cl)cc3)n2)cc1 [Compound 26] | 100 | 100
16 | OC(c1cccc(Nc2cc(Cl)nc(N/N=C/c3ccc(OC(F)(F)F)cc3)n2)c1)C(F)(F)F (stereo not shown) [Compound 49] | 50 | 88
17 | Clc1ccc(/C=N/Nc2nc(Cl)cc(Nc3cccc(Cl)c3)n2)cc1 [Compound 32] | 88 | 0
18 | Fc1cnc(N/N=C/c2ccc(Cl)cc2)nc1Nc1ccc(OC(F)(F)F)cc1 [Compound 16] | 100 | 100
19 | FC(F)C(F)(F)Oc1cccc(/C=N/Nc2nc(Cl)cc(Nc3ccc(Cl)cc3)n2)c1 [Compound 45] | 63 | 63
20 | Fc1ccc(Nc2nc(N/N=C/c3ccc(OC(F)(F)F)cc3)nc(Cl)c2Cl)cc1C(F)(F)F [Compound 41] | 75 | 0
21 | Fc1ccc(Nc2nc(Cl)nc(N/N=C/c3ccc(OC(F)(F)F)nc3)c2Cl)cc1C(F)(F)F [Compound 82] | 100 | 100
22 | FC(F)(F)Oc1ccc(Nc2nccc(N/N=C/c3ccc(C(F)(F)F)cc3)n2)cc1 [Compound 74] | 100 | 100
23 | FC(F)(F)c1ccc(/C=N/Nc2nc(Cl)cc(Nc3cccc(Br)c3)n2)cc1 [Compound 40] | 100 | 100
24 | FC(F)C(F)(F)Oc1ccc(Nc2cc(Cl)nc(N/N=C/c3ccc(Cl)cc3)n2)cc1 [Compound 10] | 88 | 63

Row | Structure (SMILES) | HELIZE 50 (ug/cm2), percent control [1] [%] | LAPHEG 50 (ug/cm2), percent control [2] [%]
25 | Fc1ccc(Nc2nccc(N/N=C/c3ccc(OC(F)(F)C(F)F)cc3)n2)cc1C(F)(F)F [Compound 77] | 100 | 100
26 | N#Cc1ccc(/C=N/Nc2nc(Cl)cc(Nc3cccc(Cl)c3)n2)cc1 [Compound 33] | 13 | 13
27 | OC(c1cccc(Nc2cc(Cl)nc(N/N=C/c3ccc(OC(F)(F)C(F)F)cc3)n2)c1)C(F)(F)F (stereo not shown) [Compound 50] | 0 | 63
28 | Fc1ccc(Nc2cc(C(F)(F)F)nc(N/N=C/c3cccc(Br)c3)n2)cc1C(F)(F)F [Compound 57] | 100 | 100
29 | Fc1ccc(Nc2ccnc(N/N=C/c3ccc(OC(F)(F)F)cc3)n2)cc1C(F)(F)F [Compound 80] | 100 | 100
30 | CN(c1ccc(OC(F)(F)F)cc1)c1cc(C(F)(F)F)nc(N/N=C/c2ccc(OC(F)(F)F)cc2)n1 [Compound 2, Methyl-(4-trifluoromethoxyphenyl)-(2-{N′-[1-(4-trifluoromethoxy-phenyl)-methylidene]-hydrazino}-6-trifluoromethylpyrimidin-4-yl)amine] | 50 | 0
31 | Fc1cc(Nc2ccc(OC(F)(F)C(F)F)cc2)nc(NN=Cc2ccc(OC(F)(F)F)cc2)n1 [Compound 19] | 13 | 50
32 | Clc1cccc(/C=N/Nc2nc(Cl)cc(Nc3cccc(Br)c3)n2)c1 [Compound 35] | 25 | 0
33 | FC(F)C(F)(F)Oc1ccc(Nc2cc(Cl)nc(N/N=C/c3cccc(OC(F)(F)C(F)F)c3)n2)cc1 [Compound 7] | 25 | 88
34 | Fc1ccc(Nc2nc(Cl)cc(N/N=C/c3ccc(OC(F)(F)C(F)F)cc3)n2)cc1C(F)(F)F [Compound 76] | 25 | 38
35 | Clc1cccc(/C=N/Nc2nc(Cl)cc(Nc3cccc(Cl)c3)n2)c1 [Compound 38] | 0 | 25
36 | Fc1cnc(N/N=C/c2ccc(Br)cc2)nc1Nc1ccc(OC(F)(F)F)cc1 [Compound 12] | 100 | 0
37 | FC(F)C(F)(F)Oc1ccc(/C=N/Nc2nc(Cl)cc(Nc3ccc(OC(F)(F)C(F)F)cc3)n2)cc1 [Compound 5] | 88 | 100
38 | Fc1ccc(Nc2cc(N/N=C/c3ccc(C(F)(F)F)nc3)ncn2)cc1C(F)(F)F [Compound 86] | 100 | 100
39 | FC(F)(F)Oc1ccc(/C=N/Nc2nc(Nc3ccc(OC(F)(F)F)cc3)cc(C(F)(F)F)n2)cc1 [Compound 60] | 100 | 100
40 | Fc1ccc(Nc2cc(C(F)(F)F)nc(N/N=C/c3ccc(OC(F)(F)F)cc3)n2)cc1C(F)(F)F [Compound 56] | 100 | 100
41 | Fc1ccc(/C=N/Nc2nc(Cl)cc(Nc3cccc(OC(F)(F)C(F)F)c3)n2)cc1C(F)(F)F [Compound 48] | 88 | 25
42 | FC(F)(F)Oc1ccc(/C=N/Nc2nc(Nc3cccc(C(F)(F)F)c3)cc(C(F)(F)F)n2)cc1 [Compound 54] | 100 | 100
43 | Fc1ccc(Nc2cc(Cl)nc(N/N=C/c3ccc(OCC(F)(F)F)nc3)n2)cc1C(F)(F)F [Compound 70] | 100 | 100
44 | FC(F)C(F)(F)Oc1ccc(Nc2cc(Cl)nc(N/N=C/c3ccc4c(c3)OC(F)(F)O4)n2)cc1 [Compound 9] | 100 | 100
45 | Fc1cc(Nc2ccc(OC(F)(F)C(F)F)cc2)nc(NN=Cc2ccc(OC(F)(F)C(F)F)cc2)n1 [Compound 20] | 25 | 50
46 | COc1ccc(/C=N/Nc2nc(Cl)cc(Nc3ccc(F)c(C(F)(F)F)c3)n2)cc1 [Compound 23] | 38 | 50
47 | Fc1ccc(Nc2cc(C(F)(F)F)nc(N/N=C/c3ccc(C(F)(F)F)nc3)n2)cc1C(F)(F)F [Compound 72] | 100 | 100
